From publication PMC12040169 (PLOS Biology, 2025) come the findings set out here.

The series can be described thus: in vitro. The note with it: human, hela cells, % viability.
`CC1(C)CC(=O)c2sc(NC(=O)c3ccccc3)nc2C1` [CBK287318]: the viability at 28.5 h, 10 µM stood at 85.6%. The same measure for `CN(C)CC(C)(C)CNC(=O)c1cnc2cc(C(F)(F)F)ccc2c1O` [CBK107427]: 97.9%.

Consider `CN(C)C(=O)NCCNC(=O)c1c[nH]nc1-c1cc2ccccc2o1` [CBK306157], for which the viability at 28.5 h, 10 µM came to 85.7%. For `OCCCNCC(O)CN1c2ccccc2Sc2ccccc21` (stereo not shown) [CBK027632G], the viability at 28.5 h, 10 µM was 98.4%. Turning to `CSC(C)CCN1CCn2nc(CNc3cnccn3)cc2C1` (stereo not shown) [CBK307376], the viability at 28.5 h, 10 µM was determined as 95.5%.

`Cc1cc(/C=N/NC(=O)C(=O)NCc2ccccn2)c(C)n1-c1cccc(Br)c1` [CBK263815]: the viability at 28.5 h, 10 µM was found to be 93.2%. The same measure for `O=C(O)C[C@@H]1CCN(C(=O)C2CCCCC2)C[C@@H]1CC1=NCCc2ccccc21` [CBK289158]: 101%; for `CC1=C(C#N)c2nc(N)c(C#N)c(C)c2/C1=C\c1ccc(-c2ccc(C(=O)O)cc2)o1` [CBK263415]: 105%; for `Cc1nn(C)c2nc(NCc3ccc(C(=O)N4CCCC4)cc3)sc12` [CBK307190]: 88.6%. As to `COc1cccc(-c2nccnc2C2CCCN(S(=O)(=O)c3ccc(F)cc3)C2)c1` (stereo not shown) [CBK286138], the viability at 28.5 h, 10 µM is 108%. Take `COc1cc(Br)cc(C2NC(=O)c3cnc(SC)nc3N2)c1O` (stereo not shown) [CBK291179]: the viability at 28.5 h, 10 µM was determined as 91.9%. For `COc1cc(OC)c(NC(=O)C(C)Oc2ccc(Cl)c(C)c2)cc1Cl` (stereo not shown) [CBK269697], the viability at 28.5 h, 10 µM came to 89.7%. Then `O=C(NCc1ccc(F)cc1)c1cc(Br)cnc1N1CCOCC1` [CBK076246], with 89.1%; and `Cc1ccc(-c2nc(C)sc2CC(=O)N(C)CCN(C)C)cc1` [CBK282175], with 112%. In the case of `CCOc1ccc(-c2cncc(N[C@@H](C)c3ccccc3)n2)cc1` [CBK065720], the viability at 28.5 h, 10 µM is 106%. As to `Cn1nc2n(c1=O)CC(C(=O)NCCN1CCCc3ccccc31)CC2` (stereo not shown) [CBK307206], the viability at 28.5 h, 10 µM is 93.5%.

`Cn1ccc(C(=O)N2CCC[C@H](C(=O)c3ccc(F)cc3)C2)n1` [CBK284333]: the viability at 28.5 h, 10 µM worked out at 88.3%. The same measure for `O=C1CNC(=O)C2(C/C=C/C[C@H]3COCC[C@H]3N1)CCN(Cc1ccc(F)cn1)CC2` [CBK292160]: 110%; for `CN1CCOc2ccccc2C(=O)NC/C=C/CC2(CCCNC2)C1=O` (stereo not shown) [CBK292027]: 107%; for `O=S(=O)(Nc1nnc(C(F)(F)F)s1)c1ccc(Oc2ccccc2)cc1` [CBK062007]: 92.6%.

As to `CN(C)CCNc1cc(-c2ccc3ccccc3c2)nc2ccccc12` [CBK278186B], the viability at 28.5 h, 10 µM came to 67.9%. With `O=C(NCCc1cccs1)Nc1ccccc1OC(F)(F)F` [CBK044873], the viability at 28.5 h, 10 µM came to 98%.

Turning to `COCc1ccc(C(=O)N2CCN3C(=O)CCC32C)o1` (stereo not shown) [CBK282091], the viability at 28.5 h, 10 µM was 104%. On to `COc1cccc(OC)c1OCCN1CCC(CNC(=O)Nc2cccc(C(F)(F)F)c2)CC1` [CBK051512T], for which the viability at 28.5 h, 10 µM was 96.7%. Consider `Cc1ccc(NC(=O)COc2ccccc2)c(NC(=O)c2ccccc2I)c1` [CBK266793], for which the viability at 28.5 h, 10 µM amounted to 98.2%. The same measure for `COC(=O)c1ccc(CN2CCC(Oc3nccnc3OCc3ccc(Cl)c(Cl)c3)CC2)o1` [CBK153782]: 84.2%. As for `CN1CCC(N2CCN(C(=O)NCc3ccc(Cl)c(Cl)c3)CC2)CC1` [CBK155883], the viability at 28.5 h, 10 µM stood at 92.5%.

Turning to `COc1ccc(OCCN2CCC3(CC2)CN(C(=O)CO)c2ccccc23)cc1` [CBK131512], the viability at 28.5 h, 10 µM was 103%. The same measure for `O=C(NCc1cccnc1OCC(F)(F)F)c1ccc(=O)[nH]n1` [CBK305578]: 92.1%; for `O=c1[nH]c2ncc(-c3cccc4cccnc34)nc2n1C1CCCCC1` [CBK064215]: 96%. The same measure for `O=c1[nH]c2ccncc2c2ccccc12` [CBK016740C]: 92%.
